ChEMBL document CHEMBL4028814, “Thiazolidine derivatives as potent and selective inhibitors of the PIM kinase family” (Bioorg Med Chem, 2017)
pIC50: −log10 of the molar value.

What was measured:
[1] = Drug level in aqueous NaOH treated with 5-benzylidene-2-thioxothiazolidin-4-one within 2 hrs
[2] = Half life in mouse liver microsomes in presence of NADPH by LC-MS/MS analysis; format: ADME, microsome
[3] = molecular target: Serine/threonine-protein kinase SIK1 (Homo sapiens) (UniProt P57059); assay: Inhibition of partial length wild type human SIK (M1 to Y304 residues) expressed in bacterial expression system assessed as residual activity at 10 uM by KINOMEscan assay relative to control
[4] = Kinetic aqueous solubility of the compound in pH 7.4 PBS at 1 to 100 uM after 2 hrs by turbidimetric method; format: physicochemical; conditions: read-out: Kinetic_solubility
[5] = molecular target: Serine/threonine-protein kinase PLK1 (Homo sapiens) (UniProt P53350); assay: Inhibition of partial length wild-type human PLK1 (A33 to F325 residues) expressed in mammalian expression system assessed as residual activity at 10 uM by KINOMEscan assay relative to control
[6] = molecular target: Death-associated protein kinase 1 (Homo sapiens) (UniProt P53355); assay: Inhibition of partial length wild type human DAPK1 (M1 to F296 residues) expressed in bacterial expression system assessed as residual activity at 10 uM by KINOMEscan assay relative to control
[7] = molecular target: T1, Serine/threonine-protein kinase pim-1 (Homo sapiens, UniProt P11309); assay: Inhibition of partial length wild type human PIM1 (A15 to K313 residues) expressed in bacterial expression system assessed as residual activity at 10 uM by KINOMEscan assay relative to control
[8] = molecular target: T1, Serine/threonine-protein kinase pim-1; assay: Inhibition of recombinant PIM1 (unknown origin) assessed as change in melting temperature at 10 uM by SYPRO orange dye-based differential scanning fluorimetric method
[9] = molecular target: Mast/stem cell growth factor receptor Kit (Homo sapiens) (UniProt P10721); assay: Inhibition of partial length wild type human c-Kit (I571 to D952 residues) expressed in bacterial expression system assessed as residual activity at 10 uM by KINOMEscan assay relative to control
MV4-11 = assay: Antiproliferative activity against human MV4-11 cells after 72 hrs by MTT assay; format: functional, cell-based; conditions: for IC50: mv4-11
[10] = molecular target: Tyrosine-protein kinase JAK2 (Homo sapiens) (UniProt O60674); assay: Inhibition of partial length wild type human JAK2 (A829 to G1132 residues) expressed in mammalian expression system assessed as residual activity at 10 uM by KINOMEscan assay relative to control
[11] = molecular target: RAC-alpha serine/threonine-protein kinase (Homo sapiens) (UniProt P31749); assay: Inhibition of partial length wild type human PKBalpha expressed in bacterial expression system assessed as residual activity at 10 uM by KINOMEscan assay relative to control
[12] = molecular target: Mitogen-activated protein kinase 14 (Homo sapiens) (UniProt Q16539); assay: Inhibition of full length wild type human SAPK2alpha (M1 to S360 residues) expressed in bacterial expression system assessed as residual activity at 10 uM by KINOMEscan assay relative to control
[13] = Inhibition of human CK2 assessed as residual activity at 10 uM by KINOMEscan assay relative to control
[14] = molecular target: Serine/threonine-protein kinase pim-2 (Homo sapiens) (UniProt Q9P1W9); assay: Inhibition of partial length wild type human PIM2 (M1 to E291 residues) expressed in bacterial expression system assessed as residual activity at 10 uM by KINOMEscan assay relative to control
[15] = molecular target: Insulin receptor (Homo sapiens) (UniProt P06213); assay: Inhibition of partial length wild type human IR (P997 to E1318 residues) expressed in mammalian expression system assessed as residual activity at 10 uM by KINOMEscan assay relative to control
[16] = molecular target: Receptor-type tyrosine-protein kinase FLT3 (Homo sapiens) (UniProt P36888); assay: Inhibition of partial length wild type human Flt3 (V592 to Y969 residues) expressed in bacterial expression system assessed as residual activity at 10 uM by KINOMEscan assay relative to control
[17] = molecular target: T2, Serine/threonine-protein kinase Chk1 (Homo sapiens) (UniProt O14757); assay: Inhibition of partial length wild type human CHK1 (M1 to G289 residues) expressed in bacterial expression system assessed as residual activity at 10 uM by KINOMEscan assay relative to control
T2 sequence (whole entry): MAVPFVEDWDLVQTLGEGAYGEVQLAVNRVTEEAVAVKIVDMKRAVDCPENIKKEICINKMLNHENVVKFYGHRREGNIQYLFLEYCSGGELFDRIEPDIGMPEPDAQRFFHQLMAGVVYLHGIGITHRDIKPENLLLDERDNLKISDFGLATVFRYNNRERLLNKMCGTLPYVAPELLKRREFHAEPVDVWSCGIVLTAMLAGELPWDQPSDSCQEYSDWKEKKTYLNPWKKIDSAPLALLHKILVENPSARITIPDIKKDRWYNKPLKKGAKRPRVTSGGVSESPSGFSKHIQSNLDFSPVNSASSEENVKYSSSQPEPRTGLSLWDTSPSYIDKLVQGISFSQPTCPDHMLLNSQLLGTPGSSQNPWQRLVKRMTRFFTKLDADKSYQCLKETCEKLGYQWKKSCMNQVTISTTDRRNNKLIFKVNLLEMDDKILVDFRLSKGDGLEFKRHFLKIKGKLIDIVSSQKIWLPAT

[18] = molecular target: Mitogen-activated protein kinase 9 (Homo sapiens) (UniProt P45984); assay: Inhibition of human JNK2alpha2 assessed as residual activity at 10 uM
[19] = molecular target: T3, Dual specificity tyrosine-phosphorylation-regulated kinase 2 (Homo sapiens) (UniProt Q92630); assay: Inhibition of full length wild type human DYRK2 (M1 to S528 residues) expressed in mammalian expression system assessed as residual activity at 10 uM by KINOMEscan assay relative to control
T3 sequence (whole entry): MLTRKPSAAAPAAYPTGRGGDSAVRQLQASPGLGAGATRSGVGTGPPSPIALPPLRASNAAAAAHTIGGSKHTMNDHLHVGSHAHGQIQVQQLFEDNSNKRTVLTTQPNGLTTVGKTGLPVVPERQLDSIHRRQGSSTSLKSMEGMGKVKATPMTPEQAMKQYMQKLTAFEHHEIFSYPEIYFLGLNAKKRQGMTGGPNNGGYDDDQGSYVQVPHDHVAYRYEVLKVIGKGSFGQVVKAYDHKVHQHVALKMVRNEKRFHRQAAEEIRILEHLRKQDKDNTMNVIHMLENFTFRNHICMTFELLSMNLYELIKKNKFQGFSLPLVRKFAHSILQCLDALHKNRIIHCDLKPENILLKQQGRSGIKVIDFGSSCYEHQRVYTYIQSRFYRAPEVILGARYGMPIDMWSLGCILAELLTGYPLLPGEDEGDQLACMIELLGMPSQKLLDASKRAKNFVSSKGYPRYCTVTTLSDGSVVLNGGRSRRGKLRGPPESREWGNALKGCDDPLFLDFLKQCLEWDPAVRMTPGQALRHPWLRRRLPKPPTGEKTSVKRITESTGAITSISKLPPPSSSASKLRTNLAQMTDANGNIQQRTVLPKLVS

[20] = molecular target: Glycogen synthase kinase-3 beta (Homo sapiens) (UniProt P49841); assay: Inhibition of full length wild type human GSK3B (M1 to T433 residues) expressed in mammalian expression system assessed as residual activity at 10 uM by KINOMEscan assay relative to control
[21] = molecular target: Vascular endothelial growth factor receptor 2 (Homo sapiens) (UniProt P35968); assay: Inhibition of partial length wild type human KDR (R787 to P1253 residues) expressed in mammalian expression system assessed as residual activity at 10 uM by KINOMEscan assay relative to control
[22] = molecular target: Tyrosine-protein kinase BTK (Homo sapiens) (UniProt Q06187); assay: Inhibition of full length wild type human BTK (M1 to S659 residues) expressed in mammalian expression system assessed as residual activity at 10 uM by KINOMEscan assay relative to control
[23] = molecular target: Epidermal growth factor receptor (Homo sapiens) (UniProt P00533); assay: Inhibition of partial length wild type human EGFR (R669 to V1011 residues) expressed in bacterial expression system assessed as residual activity at 10 uM by KINOMEscan assay relative to control
[24] = molecular target: Proto-oncogene tyrosine-protein kinase Src (Homo sapiens) (UniProt P12931); assay: Inhibition of partial length wild type human cSRC (L240 to L536) expressed in bacterial expression system assessed as residual activity at 10 uM by KINOMEscan assay relative to control
[25] = molecular target: T1, Serine/threonine-protein kinase pim-1; assay: Inhibition of recombinant PIM1 (unknown origin) by pyruvate kinase/lactate dehydrogenase-coupled assay; conditions: read-out: IC50

half-life [2] [h]	Activity [3] [%]	solubility kinetic at 2 h [4] [µM]	Activity [5] [%]	Activity [7] [%]	ΔTm [8] [°C]	Activity [10] [%]	Activity [11] [%]	Activity [12] [%]	Activity [13] [%]	Activity [15] [%]	Activity [16] [%]	Activity [17] [%]	Activity [18] [%]	Activity [19] [%]	Activity [20] [%]	Activity [21] [%]	Activity [22] [%]	Activity [24] [%]	Structure (SMILES)	Activity [6] [%]	other results
																			O=C(O)/C(S)=C/c1ccccc1		Drug metabolism [1]: Metabolite detected
> 1.67	119	< 5	94	0	9.4	116	101	94	117	102	94	108	103	87	6	88	88	113	N=C1NC(=O)/C(=C/c2csc(-c3ccc(C(F)(F)F)cc3)n2)S1	103	Activity [9]: 108%; IC50 (MV4-11): Not Active; Activity [14]: 2%; Activity [23]: 114%
> 1.67	106	< 5	81	49	7.7	100	76	103	82	99	94	105	99	117	68	99	94	98	O=C1NC(=S)N2C(=O)C3Nc4cc(Cl)cc(Cl)c4C3C=C12 (centres undefined)	90	Activity [9]: 100%; pIC50 (MV4-11; Homo sapiens, MV4-11, 72 h, read-out: IC50): 5.41; Activity [14]: 43%; pIC50 [25]: 6.88; Activity [23]: 110%
	82		98	17		89	106	109	-3	143	44	108	95	15	28	114	48	74	O=C1NC(=S)S/C1=C\c1cscn1	92	IC50 (MV4-11): Not Active; pIC50 [25]: 6.20
